Assay [1] has as its target T1, C-C chemokine receptor type 7 (Homo sapiens, UniProt P32248).
T1 sequence (P32248 whole entry): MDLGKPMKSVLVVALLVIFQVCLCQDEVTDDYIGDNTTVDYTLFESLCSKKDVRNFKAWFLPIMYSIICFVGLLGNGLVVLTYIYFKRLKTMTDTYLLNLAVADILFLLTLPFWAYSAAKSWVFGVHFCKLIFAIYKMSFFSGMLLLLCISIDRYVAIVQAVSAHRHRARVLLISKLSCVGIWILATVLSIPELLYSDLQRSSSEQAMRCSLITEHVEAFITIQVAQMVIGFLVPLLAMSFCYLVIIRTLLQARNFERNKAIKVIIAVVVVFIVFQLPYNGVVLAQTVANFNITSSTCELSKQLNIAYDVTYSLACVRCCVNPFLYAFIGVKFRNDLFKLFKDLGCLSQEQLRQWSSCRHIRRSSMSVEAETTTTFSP
As to the kind of experiment: Antagonist activity at CCR7 in human CD4 cells by fluorescence based calcium mobilization assay. It counts as functional, cell-based, CD4+ve Th.

The target in assay [2] is T2, C-X-C chemokine receptor type 2 (Homo sapiens, UniProt P25025).
T2 sequence (P25025 whole entry): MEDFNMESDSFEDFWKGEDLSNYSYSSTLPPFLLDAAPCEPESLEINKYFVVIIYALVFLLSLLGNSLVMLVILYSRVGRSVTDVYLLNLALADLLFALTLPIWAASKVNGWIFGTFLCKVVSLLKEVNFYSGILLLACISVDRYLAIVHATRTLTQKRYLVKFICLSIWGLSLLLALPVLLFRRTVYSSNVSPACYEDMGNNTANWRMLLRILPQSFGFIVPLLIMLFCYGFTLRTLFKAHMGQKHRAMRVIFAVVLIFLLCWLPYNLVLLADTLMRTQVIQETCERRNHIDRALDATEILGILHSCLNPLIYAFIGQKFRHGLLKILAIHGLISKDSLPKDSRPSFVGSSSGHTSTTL
The assay can be described thus: Antagonist activity at CXCR2 in human CD4 cells by fluorescence based calcium mobilization assay. It counts as functional, cell-based, CD4+ve Th.

Assay [3] concerns the target T1, C-C chemokine receptor type 7. As to the kind of experiment: Competitive binding affinity to CCR7 in human U87 cells preincubated for 15 mins followed by CCL19 AF647 addition measured after 30 mins by flow cytometric analysis. It counts as cell-based.

32 molecules from ChEMBL document CHEMBL5346926, “Optimization of triazolo[4,5-d]pyrimidines towards human CC chemokine receptor 7 (CCR7) antagonists” (Eur J Med Chem, 2023) can be followed below.

In the case of `C[C@H](CO)Nc1nc(SCc2cccc(F)c2F)nc2nc(N)sc12`, the IC50 in assay [1] is more than 30 µM.
The same measure, in the same setting: to `C[C@H](CO)Nc1nc(SCc2cccc(F)c2F)nc2sccc12` belongs more than 30 µM; to `C[C@H](CO)Nc1nc(SCc2cccc(F)c2F)nc2cccnc12`, more than 30 µM; to `C[C@H](CO)Nc1nc(SCc2cccc(F)c2F)nc2ccsc12`, more than 30 µM.
Same read-out and setting: as for `C[C@H](CO)Nc1nc(SCc2cccc(F)c2F)nc2cc[nH]c12`, the figure is more than 30 µM; as for `C[C@H](CO)Nc1nc(SCc2cccc(F)c2F)nc2cnccc12`, more than 30 µM.
The same measure, in the same setting: to `C[C@H](CO)Nc1nc(SCc2cccc(F)c2F)nc2c1CNCC2` belongs more than 30 µM.
Regarding `Fc1cccc(CSc2nc(NCC3CC3)c3nn[nH]c3n2)c1F`, the figures for the IC50 in assay [2] and in assay [1] were 2.98 µM and more than 30 µM, respectively.
As for `C[C@H](CO)Nc1nc(SCCC2CCCCC2)nc2[nH]nnc12`, the IC50 in assay [1] was determined as 1.68 µM.
As for `C[C@H](CO)Nc1nc(OCc2cccc(F)c2F)nc2[nH]nnc12`, the IC50 in assay [1] was determined as 23.8 µM.
On to `Fc1cccc(CSc2nc(N3CCNCC3)c3nn[nH]c3n2)c1F`, for which the IC50 in assay [2] and in assay [1] was more than 30 µM each time.
With `CC(C)(CO)Nc1nc(SCc2cccc(F)c2F)nc2[nH]nnc12`, the IC50 in assay [1] was 2.29 µM.
On to `COCCNc1nc(SCc2cccc(F)c2F)nc2[nH]nnc12`, for which the IC50 in assay [2] worked out at 8.78 µM; in assay [1], 17.2 µM.
For `CCCC(C)CSc1nc(N[C@H](C)CO)c2nn[nH]c2n1` (stereo not given in full) the same measures were 2.58 µM and 8.49 µM.
In the case of `CC(C)CCCCSc1nc(N[C@H](C)CO)c2nn[nH]c2n1`, the IC50 in assay [1] came to 5.28 µM.
On to `C[C@H](CO)Nc1nc(SCC2CCCC2)nc2[nH]nnc12`, for which the IC50 in assay [2] was found to be 2.37 µM.
As to `OCCSc1nc(SCc2cccc(F)c2F)nc2[nH]nnc12`, the IC50 in assay [1] amounted to 5.81 µM.
On the same count and under the same terms, to `CN(C)c1nc(SCc2cccc(F)c2F)nc2[nH]nnc12` belongs more than 30 µM.
Same read-out and setting: to `CCCOCCSc1nc(N[C@H](C)CO)c2nn[nH]c2n1` belongs 29.3 µM; to `OCCNc1nc(SCc2cccc(F)c2F)nc2[nH]nnc12`, 8.66 µM.
Turning to `C[C@H](CCO)Nc1nc(SCc2cccc(F)c2F)nc2[nH]nnc12`, the IC50 in assay [2] is 2.09 µM; in assay [1], 7.14 µM.
For `CN(C)CCNc1nc(SCc2cccc(F)c2F)nc2[nH]nnc12` the same measures were more than 30 µM and more than 30 µM.
For `CC(C)(C)OC(=O)N1CCN(c2nc(SCc3cccc(F)c3F)nc3[nH]nnc23)CC1` the same measures were 11.5 µM and more than 30 µM.
`CCCNC(=O)CSc1nc(N[C@H](C)CO)c2nn[nH]c2n1`: the 50% inhibitory concentration (IC50) in assay [2] is more than 30 µM.
As to `C[C@H](CO)Nc1nc(SCCc2ccccc2)nc2[nH]nnc12`, the IC50 in assay [1] worked out at 1.18 µM.
On the same count and under the same terms, to `OCCCNc1nc(SCc2cccc(F)c2F)nc2[nH]nnc12` belongs 18.6 µM; to `C[C@H](CO)Nc1nc(SCc2cccc(F)c2F)nc2c1nnn2C`, more than 30 µM.
On to `C[C@@H](CO)Nc1nc(SCc2cccc(F)c2F)nc2[nH]nnc12`, for which the IC50 in assay [2] was found to be 1.75 µM.
On the same count and under the same terms, to `Cc1ccc([C@H](NC2=NS(=O)(=O)N=C2Nc2ccc(C)c(C(=O)N(C)C)c2O)C(C)(C)C)o1` belongs 6.4 µM.
On the same count and under the same terms, to `C[C@H](CO)Nc1nc(SC2CCCCC2)nc2[nH]nnc12` belongs more than 30 µM.
Consider `CCCCCCSc1nc(N[C@H](C)CO)c2nn[nH]c2n1`, for which the IC50 amounted to 1.78 µM in assay [3] and 0.43 µM in assay [1].
On to `C[C@H](CO)Nc1nc(Sc2ccccc2)nc2[nH]nnc12`, for which the IC50 in assay [1] was more than 30 µM.
